Assay results: PMC7938888, “Antidepressant drugs act by directly binding to TRKB neurotrophin receptors” (Cell, 2021)
pKd: −log10 of the molar value.

Legend:
TRKB [1] = target: T1, TRKB (Mus musculus, UniProt P15209); experiment: Cell-free ligand binding assay on immobilised TRKB from HEK293T lysates; parameters: wild-type GFP-tagged full length TRKB or the GFP-tagged Y433F TRKB mutant; host or cells: HEK293T; conditions: read-out: Kd of biotinylated FLX binding to immunoprecipitated TRKB; biotinylated ligand 0-100 μM
T1 sequence (P15209 32-821): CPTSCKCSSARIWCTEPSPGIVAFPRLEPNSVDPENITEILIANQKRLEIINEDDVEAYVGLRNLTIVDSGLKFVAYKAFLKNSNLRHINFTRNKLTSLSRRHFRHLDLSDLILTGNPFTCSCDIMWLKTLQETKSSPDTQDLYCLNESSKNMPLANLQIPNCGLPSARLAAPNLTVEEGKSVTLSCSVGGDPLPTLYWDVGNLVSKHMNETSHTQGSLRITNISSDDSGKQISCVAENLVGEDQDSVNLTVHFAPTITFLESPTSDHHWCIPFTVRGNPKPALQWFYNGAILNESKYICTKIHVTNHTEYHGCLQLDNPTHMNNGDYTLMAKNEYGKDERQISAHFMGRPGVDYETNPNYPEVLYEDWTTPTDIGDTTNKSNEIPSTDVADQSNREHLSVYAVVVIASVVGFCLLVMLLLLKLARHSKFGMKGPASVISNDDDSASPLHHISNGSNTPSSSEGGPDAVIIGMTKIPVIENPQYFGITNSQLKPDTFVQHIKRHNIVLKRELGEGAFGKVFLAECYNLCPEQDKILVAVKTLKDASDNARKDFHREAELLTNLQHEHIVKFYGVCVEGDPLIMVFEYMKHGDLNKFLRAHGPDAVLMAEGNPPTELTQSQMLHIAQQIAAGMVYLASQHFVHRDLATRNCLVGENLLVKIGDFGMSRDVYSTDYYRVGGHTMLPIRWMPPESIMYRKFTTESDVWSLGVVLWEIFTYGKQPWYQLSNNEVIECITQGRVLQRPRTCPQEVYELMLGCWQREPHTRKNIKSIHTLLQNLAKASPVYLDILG
Description: The cell-free assays (binding assays) were performed in white 96-well plates, based on the protocol used for western-blotting or ELISA ([Baeza-Raja et al., 2016]; [Das et al., 2015]). The plates were precoated with anti-GFP, anti-FLAG, anti-TRK or anti-TRKB antibody (1:1000) in carbonate buffer (pH 9.8), ON at 4°C. Following blocking with 3% BSA in PBS buffer (2 h at RT), 120 ug of total protein from each sample (of lysates from HEK293T cells transfected to overexpress GFP-TRKB.wt or GFP-TRKB.Y433F) were added and incubated overnight at 4°C under agitation. […] The luminescence was determined via HRP-conjugated streptavidin (1:10000, 1h, RT) activity reaction with ECL by a plate reader. The luminescence signal from blank wells (containing all the reagents but the sample lystates, substituted by the blocking buffer) was used as background. The specific signal was then calculated by subtracting the values of blank wells from the values of the samples with matched concentration of the biotinylated ligand. For Figure 2E, the precipitated TRKB.wt or Y433F was incubated with tritiated imipramine (0-30μM) and the radioactive emission of the ligand was determined by scintillation (OptiPhase Supermix cocktail: #1200-439; MicroBeta2, Perkin-Elmer). The scintillation signal from blank wells was used as background, and the specific signal was then calculated by subtracting the values of blank wells from the values of the samples with matched concentration of the radioactive ligand.

TRKA = target: T2, TRKA (Homo sapiens, UniProt P04629); experiment: Cell-free ligand binding assay, TRKA from MG87 cells; conditions: compared to TRKB
T2 construct: expressed in transfected cells; host or cells: MG87.TRKA (NIH 3T3 mouse fibroblasts stably expressing TRKA)
T2 sequence (P04629 33-796): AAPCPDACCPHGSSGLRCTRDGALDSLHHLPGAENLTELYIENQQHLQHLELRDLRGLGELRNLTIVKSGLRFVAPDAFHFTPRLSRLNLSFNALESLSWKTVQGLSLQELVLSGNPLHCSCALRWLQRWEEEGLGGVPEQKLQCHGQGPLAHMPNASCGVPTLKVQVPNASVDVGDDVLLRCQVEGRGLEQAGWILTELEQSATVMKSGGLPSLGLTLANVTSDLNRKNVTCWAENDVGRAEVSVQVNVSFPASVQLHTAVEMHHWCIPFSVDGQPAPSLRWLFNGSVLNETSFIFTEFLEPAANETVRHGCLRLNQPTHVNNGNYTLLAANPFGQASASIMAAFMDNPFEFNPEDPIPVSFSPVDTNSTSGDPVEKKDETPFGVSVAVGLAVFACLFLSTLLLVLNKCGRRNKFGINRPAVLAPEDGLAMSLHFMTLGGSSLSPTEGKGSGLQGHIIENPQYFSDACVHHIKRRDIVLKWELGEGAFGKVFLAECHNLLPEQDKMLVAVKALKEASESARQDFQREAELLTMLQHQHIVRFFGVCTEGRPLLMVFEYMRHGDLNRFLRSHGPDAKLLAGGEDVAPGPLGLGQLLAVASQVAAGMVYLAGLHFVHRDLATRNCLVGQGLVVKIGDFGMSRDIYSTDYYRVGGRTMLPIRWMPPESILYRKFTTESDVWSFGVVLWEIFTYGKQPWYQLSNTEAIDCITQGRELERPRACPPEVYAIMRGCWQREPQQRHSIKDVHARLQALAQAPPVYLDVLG

TRKB [2] = target: T1, TRKB; experiment: In situ proximity ligation assay (PLA) in TRKB-expressing N2A cells; type: cell-based; parameters: expressed in transfected cells; host or cells: N2A; conditions: biotinylated fluoxetine 10 μM/15 min
Description: Proximity ligation assay was done with Duolink In Situ Red Starter Kit Mouse/Goat (#DUO92103, Sigma-Aldrich), following manufacturer’s instructions. […] Cells were fixed with PFA 4% for 15 min, washed, and incubated in Duolink blocking buffer for 1h at 37°C. Then, the coverslips were incubated with streptavidin-conjugated HRP (1:5000 in Duolink antibody diluent) for 45 min at room temperature. After washing twice in Duolink washing buffer A, samples were incubated overnight at 4°C with a mix of goat anti-TRKB (1:1000, #AF1494, R&D System) and mouse anti-HRP (1:1000, #200-3138-0100, Rockland Immunochemicals) diluted in Duolink antibody diluent. After washing in Duolink washing buffer A, samples were incubated for 1h at 37°C with a mix of minus and plus probes diluted 1:5 in Duolink antibody diluent. Then, ligation of probes with connector oligo was done by washing the samples in washing buffer A, and incubating for 30min at 37°C with ligase (25 U/ml) diluted in the Duolink ligation buffer. Amplification was done by washing the samples in the washing buffer A, and incubating for 100min at 37°C with polymerase (125 U/ml) diluted in the amplification buffer. Coverslips were washed in buffer B, then in buffer B diluted 1:100 in milliQ water, and mounted in Duolink in situ mounting medium with DAPI. All incubation steps were done in a humidified chamber. […]

E18 cortical cells = experiment: Cell viability (CellTiterGlo) of cortical cells; type: cell-based, rat; conditions: pravastatin 2 μM for 5 days
Description: The cell viability assay was performed using CellTiterGlo (#G7571; Promega) according to manufacturer’s instructions. Briefly, equal amounts of medium and the mixture of regents A and B were added to the E18 cortical cells (DIV8) cultivated in clear bottom 96-well plates and incubated for 40min. The luminescence was analyzed in a plate reader.

mice = experiment: Object location memory (OLM) test; type: in vivo, mouse; conditions: wild-type mice, pravastatin co-treatment
Description: Object-location memory (OLM): this test was performed in a square arena (28cm side) with opaque walls containing cues (black stripes or spots). The adult male and female mice (18-22 weeks old) were placed for 3 consecutive days (15min per session) in the arena with two identical objects (table tennis balls glued to caps of 50ml Falcon tubes) in the same position throughout the sessions (pretest).

hippocampal cells = experiment: BDNF-induced neurite branching in hippocampal cells (Sholl analysis); type: cell-based, rat; conditions: pravastatin 1 μM/3 days, BDNF 10 ng/ml/3 days
Description: MG87.TRKB or primary cultured cortical cells were fixed with 4% paraformaldehyde in PBS, and unspecific binding sites were blocked with a blocking buffer (5% normal donkey serum, 1% Bovine serum albumin, 0.1% gelatin, 0.1% Triton X-100, 0.05% Tween-20 in PBS). The MG87.TRKB cells were stained with anti-GFP, while primary cultures were incubated with anti-actin. The fluorescence was obtained following incubation with secondary antibodies. The coverslips were mounted with Dako Fluorescence Mounting Medium (#S3023). Images were acquired with Zeiss LSM710 confocal microscope (63x oil objective).
For Sholl analysis of cultured hippocampal cells, confocal images were processed using FIJI ImageJ (NIH software), and the number of branches in the 80-μm range from the cell soma were counted using FIJI plugin.

TRKB:PLC-γ1 interaction = TRKB:PLC-γ1 interaction ELISA in cortical cells; type: cell-based, rat; conditions: pravastatin 1 μM/3 days
Description: The TRKB:pY (phosphorylated TRKB), TRKB:PLC-γ1, PLC-γ1:pTRKB.Y816 interactions and were determined by ELISA, based on the general method described in literature ([Antila et al., 2014]; [Fred et al., 2019]), with minor adjustments. Briefly, white 96-well plates (OptiPlate 96F-HB, Perkin Elmer) were coated with capturing anti-TRKB or PLC-γ1 antibody (1:1000) in carbonate buffer (pH = 9.8) overnight (ON) at 4°C. Following a blocking step with 2%BSA in TBS-T (2 h, RT), samples were incubated ON at 4°C. The incubation with antibody against pTRKB.Y816, PLC-γ1 or pY (1:2000, ON, 4°C) was followed by HRP-conjugated anti-Rb IgG (1:5000, 2h, RT) or HRP-conjugated streptavidin (1:10000, 2h, RT). Finally, the chemiluminescent signal generated by the reaction with ECL was analyzed in a plate reader (Varioskan Flash, Thermo Scientific).

Sprague-Dawley rats = experiment: BDNF-induced LTP in dentate gyrus of anesthetized rats; type: in vivo, rat; conditions: pravastatin 10 mg/kg/day/ in drinking water
Description: In vivo electrophysiology. Intrahippocampal BDNF infusion was performed as described previously ([Messaoudi et al., 1998]). The experiments were carried out on 20 adult male Sprague-Dawley rats (15 weeks old, Janvier, France). Rats were housed in the animal facility for 1-week prior to the start of drug administration. […]
For electrophysiological experiments, rats were anesthetized with an intraperitoneal injection of urethane (U2500, Sigma-Aldrich) 1.5 g/kg body weight, positioned in a stereotaxic frame. The body temperature was constantly monitored and maintained at 37°C with an electric heating pad. Holes were drilled in the skull and a concentric bipolar stimulating electrode (Tip separation 500micrometers; SNEX 100; Rhodes Medical Instruments, Woodland Hills, CA) was positioned in the angular bundle for stimulation of the medial perforant path (7.9 mm posterior to bregma, 4.2 mm lateral to the midline, and 2.5 mm below the dura. […]
Responses were allowed to stabilize for 1 hour at a stimulation intensity that produced a population spike 30% of maximum. […] Evoked responses were recorded for 120 min post infusion. Recorded field potentials were amplified, filtered (0.1 Hz to 10 kHz), and digitized (25 kHz). Electrophysiological data was analyzed using Datawave Technologies Software company. […]

Row | Structure (SMILES) | pKd (TRKB [1]) | interaction of biotinylated fluoxetine with TRKA (TRKA) | PLA signal between biotinylated FLX and TRKB (TRKB [2]) | neuronal survival (E18 cortical cells) | effect on R,R-HNK-improved object location memory (mice) | effect on BDNF-induced neurite branching (hippocampal cells) | effect on BDNF-induced TRKB-PLC-γ1 interaction (TRKB:PLC-γ1 interaction) | effect on BDNF-induced increase in synaptic strength (LTP) (Sprague-Dawley rats)
1 | CN(CCC(Oc1ccc(C(F)(F)F)cc1)c1ccccc1)C(=O)CCOCCOCCOCCOCCNC(=O)CCCC[C@@H]1SC[C@@H]2NC(=O)N[C@@H]21 (some centres unmarked) [biotinylated FLX] | 5.62 | negligible | robust PLA signal |  |  |  |  | 
2 | CC[C@H](C)C(=O)O[C@H]1C[C@H](O)C=C2C=C[C@H](C)[C@H](CC[C@@H](O)C[C@@H](O)CC(=O)O)[C@H]21 [pravastatin] |  |  |  | reduced neuronal survival | prevented | prevented | prevented | partially prevented
